Numbered stars: 1 amine (or outer) side, 2 acyl side, 3 side chain; on linkers, the order of the positions; unused ones are H or OH. Bridge positions count the residues as written; N and C are the ends. Square brackets hold non-standard residues; d marks the D form. Peptide text beside a SMILES is read from it. Trp(1-CH2CONHSO2Me) = CS(=O)(=O)NC(=O)Cn1cc(C[C@H](N)C(=O)O)c2ccccc21; X11 = O=C(O)Cc1nc(C[C@H](N[*:1])C(=O)[*:2])c2n1CCCC2; X6 = O=C([C@H](Cc1ccc2cnccc2c1)N[*:1])[*:2]; Phe(4-Cl) = N[C@@H](Cc1ccc(Cl)cc1)C(=O)O; Phe(4-F) = N[C@@H](Cc1ccc(F)cc1)C(=O)O; Hyp = O=C(O)[C@@H]1C[C@@H](O)CN1; NMeNle = CCCC[C@H](NC)C(=O)O; Pen = CC(C)(S)[C@H](N)C(=O)O; Pip = O=C(O)[C@@H]1CCCCN1; NMeA = CN[C@@H](C)C(=O)O; Dab = NCC[C@H](N)C(=O)O; Dap = NC[C@H](N)C(=O)O
Target: T1, PD-1-Ig binding to PD-L1-TVMV-His (PD-L1-His) (Homo sapiens, UniProt Q9NZQ7)
T1 construct: hPDL1 (19-239)-TVMV-His; TVMV protease cleavage site (C); made in house; host or cells: HEK293T cells
T1 sequence (Q9NZQ7 with tags, fused parts or gaps): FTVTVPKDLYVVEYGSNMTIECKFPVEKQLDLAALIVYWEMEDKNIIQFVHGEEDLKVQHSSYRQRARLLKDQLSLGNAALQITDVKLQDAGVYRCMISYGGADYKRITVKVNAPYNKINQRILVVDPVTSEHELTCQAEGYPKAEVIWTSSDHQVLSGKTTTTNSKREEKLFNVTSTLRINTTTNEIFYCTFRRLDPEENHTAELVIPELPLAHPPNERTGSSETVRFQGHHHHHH
Experiment: PD-1/PD-L1 Homogenous Time-Resolved Fluorescence (HTRF) binding assay
Settings: PD-1-Ig (20 nM)/PD-L1-His (10 nM)
Text: The ability of the macrocyclic peptides of the present disclosure to bind to PD-L1 was investigated using a PD-1/PD-L1 Homogenous Time-Resolved Fluorescence (HTRF) binding assay.
Homogenous Time-Resolved Fluorescence (HTRF) Assays of Binding of Soluble PD-1 to Soluble PD-L1. Soluble PD-1 and soluble PD-L1 refers to proteins with carboxyl-end truncations that remove the transmembrane-spanning regions and are fused to heterologous sequences, specifically the Fc portion of the human immunoglobuling G sequence (Ig) or the hexahistidine epitope tag (His). All binding studies were performed in an HTRF assay buffer consisting of dPBS supplemented with 0.1% (w/v) bovine serum albumin and 0.05% (v/v) Tween-20. For the PD-1-Ig/PD-L1-His binding assay, inhibitors were pre-incubated with PD-L1-His (10 nM final) for 15 m in 4 μl of assay buffer, followed by addition of PD-1-Ig (20 nM final) in 1 μl of assay buffer and further incubation for 15 m. PD-L1 fusion proteins from either human, cynomologous macaques, mouse, or other species were used. HTRF detection was achieved using europium crypate-labeled anti-Ig monoclonal antibody (1 nM final) and allophycocyanin (APC) labeled anti-His monoclonal antibody (20 nM final). Antibodies were diluted in HTRF detection buffer and 5 μl was dispensed on top of binding reaction. The reaction was allowed to equilibrate for 30 minutes and signal (665 nm/620 nm ratio) was obtained using an EnVision fluorometer. Additional binding assays were established between PD-1-Ig/PD-L2-His (20 and 5 nM, respectively), CD80-His/PD-L1-Ig (100 and 10 nM, respectively) and CD80-His/CTLA4-Ig (10 and 5 nM, respectively). Binding/competition studies between biotinylated Compound No. 71 and human PD-L1-His were performed as follows. Macrocyclic peptide inhibitors were pre-incubated with PD-L1-His (10 nM final) for 60 minutes in 4 μl of assay buffer followed by addition of biotinylated Compound No. 71 (0.5 nM final) in 1 μl of assay buffer. Binding was allowed to equilibrate for 30 minutes followed by addition of europium crylated labeled Streptavidin (2.5 pM final) and APC-labeled anti-His (20 nM final) in 5 μl of HTRF buffer. The reaction was allowed to equilibrate for 30 m and signal (665 nm/620 nm ratio) was obtained using an EnVision fluorometer.
Recombinant Proteins. Carboxyl-truncated human PD-1 (amino acids 25-167) with a C-terminal human Ig epitope tag [hPD-1 (25-167)-3S-IG] and human PD-L1 (amino acids 18-239) with a C-terminal His epitope tag [hPD-L1(19-239)-tobacco vein mottling virus protease cleavage site (TVMV)-His] were expressed in HEK293T cells and purified sequentially by recombinant Protein A affinity chromatography and size exclusion chromatography. Human PD-L2-His (Sino Biologicals), CD80-His (Sino Biologicals), CTLA4-Ig (RnD Systems) were all obtained through commercial sources.

IC50 (range class) [nM]	IC50 (numeric value) [nM]	Structure (SMILES)
100 to 990		CCCC[C@H]1C(=O)N(C)[C@@H](CCCC)C(=O)N[C@@H](CCCNC(=N)N)C(=O)N[C@H](C(=O)NCC(N)=O)CSCC(=O)N[C@@H](Cc2ccc(O)cc2)C(=O)N(C)[C@@H](C)C(=O)N[C@@H](CC(N)=O)C(=O)N2CCC[C@H]2C(=O)N[C@@H](Cc2cnc[nH]2)C(=O)N[C@@H](CC(C)C)C(=O)N2C[C@H](O)C[C@H]2C(=O)N[C@@H](Cc2c[nH]c3ccccc23)C(=O)N[C@@H](CO)C(=O)N[C@@H](Cc2ccc3cnccc3c2)C(=O)N1C [Example 0001] ({CH2CO}-Y[NMeA]NPHL[Hyp]WS[X6][NMeNle][NMeNle]RCG-NH2; thioether N-14)
	4	CCCC[C@H]1C(=O)N(C)[C@@H](CCCC)C(=O)N[C@@H](CC(C)C)C(=O)N[C@H](C(=O)NCC(N)=O)CSCC(=O)N[C@@H](Cc2ccc(O)cc2)C(=O)N(C)[C@@H](C)C(=O)N[C@@H](CC(N)=O)C(=O)N2CCC[C@H]2C(=O)N[C@@H](CN)C(=O)N[C@@H](CC(C)C)C(=O)N2C[C@H](O)C[C@H]2C(=O)N[C@@H](Cc2c[nH]c3ccccc23)C(=O)N[C@@H](CCN)C(=O)N[C@@H](Cc2cn(CC(=O)NS(C)(=O)=O)c3ccccc23)C(=O)N1C [Example 1001] ({CH2CO}-Y[NMeA]NP[Dap]L[Hyp]W[Dab][Trp(1-CH2CONHSO2Me)][NMeNle][NMeNle]LCG-NH2; thioether N-14)
1 to 9.9		CCCC[C@H]1C(=O)N(C)[C@@H](CCCC)C(=O)N[C@@H](CC(C)C)C(=O)N[C@H](C(=O)NCC(N)=O)CSCC(=O)N[C@@H](Cc2ccc(O)cc2)C(=O)N(C)[C@@H](C)C(=O)N[C@@H](CC(=O)O)C(=O)N2CCC[C@H]2C(=O)N[C@@H](Cc2cnc[nH]2)C(=O)N[C@@H](CCCCN)C(=O)N2C[C@H](O)C[C@H]2C(=O)N[C@@H](Cc2c[nH]c3ccccc23)C(=O)N[C@@H](CCCCN)C(=O)N[C@@H](Cc2cn(Cc3nnn[nH]3)c3ccccc23)C(=O)N1C [Example 1002]
1 to 9.9		CCCC[C@H]1C(=O)N(C)[C@@H](CCCC)C(=O)N[C@@H](CC(C)C)C(=O)N[C@H](C(N)=O)C(C)(C)SCC(=O)N[C@@H](Cc2ccc(F)cc2)C(=O)N2CCCC[C@H]2C(=O)N[C@@H](CC(=O)O)C(=O)N2CCC[C@H]2C(=O)N[C@@H](CN)C(=O)N[C@@H](CCC(=O)O)C(=O)N2C[C@H](O)C[C@H]2C(=O)N[C@@H](Cc2c[nH]c3ccccc23)C(=O)N[C@@H](CCN)C(=O)N[C@@H](Cc2cn(CC(=O)NS(C)(=O)=O)c3ccccc23)C(=O)N1C [Example 1003] ({CH2CO}-[Phe(4-F)][Pip]DP[Dap]E[Hyp]W[Dab][Trp(1-CH2CONHSO2Me)][NMeNle][NMeNle]L[Pen]-NH2; thioether N-14)
1 to 9.9		CCCC[C@H]1C(=O)N(C)[C@@H](CCCC)C(=O)N[C@@H](CC(C)C)C(=O)N[C@H](C(N)=O)C(C)(C)SCC(=O)N[C@@H](Cc2ccc(OC)cc2)C(=O)N2CCCC[C@H]2C(=O)N[C@@H](CC(=O)O)C(=O)N2CCC[C@H]2C(=O)N[C@@H](CN)C(=O)N[C@@H](CCC(=O)O)C(=O)N2C[C@H](O)C[C@H]2C(=O)N[C@@H](Cc2c[nH]c3ccccc23)C(=O)N[C@@H](CCN)C(=O)N[C@@H](Cc2cn(CC(=O)NS(C)(=O)=O)c3ccccc23)C(=O)N1C [Example 1004] ({CH2CO}-Y(Me)[Pip]DP[Dap]E[Hyp]W[Dab][Trp(1-CH2CONHSO2Me)][NMeNle][NMeNle]L[Pen]-NH2; thioether N-14)
1 to 9.9		CCCC[C@H]1C(=O)N(C)[C@@H](CCCC)C(=O)N[C@@H](CC(C)C)C(=O)N[C@H](C(N)=O)C(C)(C)SCC(=O)N[C@@H](Cc2ccc(Cl)cc2)C(=O)N2CCCC[C@H]2C(=O)N[C@@H](CC(=O)O)C(=O)N2CCC[C@H]2C(=O)N[C@@H](CN)C(=O)N[C@@H](CCC(=O)O)C(=O)N2C[C@H](O)C[C@H]2C(=O)N[C@@H](Cc2c[nH]c3ccccc23)C(=O)N[C@@H](CCN)C(=O)N[C@@H](Cc2cn(CC(=O)NS(C)(=O)=O)c3ccccc23)C(=O)N1C [Example 1005] ({CH2CO}-[Phe(4-Cl)][Pip]DP[Dap]E[Hyp]W[Dab][Trp(1-CH2CONHSO2Me)][NMeNle][NMeNle]L[Pen]-NH2; thioether N-14)
1 to 9.9		CCCC[C@H]1C(=O)N(C)[C@@H](CCCC)C(=O)N[C@@H](CC(C)C)C(=O)N[C@H](C(N)=O)C(C)(C)SCC(=O)N[C@@H](Cc2ccc(F)cc2)C(=O)N2CCCC[C@H]2C(=O)N[C@@H](CC(=O)O)C(=O)N2CCC[C@H]2C(=O)N[C@@H](Cc2cnc[nH]2)C(=O)N[C@@H](CCC(=O)O)C(=O)N2C[C@H](O)C[C@H]2C(=O)N[C@@H](Cc2c[nH]c3ccccc23)C(=O)N[C@@H](CCN)C(=O)N[C@@H](Cc2cn(CC(=O)NS(C)(=O)=O)c3ccccc23)C(=O)N1C [Example 1006] ({CH2CO}-[Phe(4-F)][Pip]DPHE[Hyp]W[Dab][Trp(1-CH2CONHSO2Me)][NMeNle][NMeNle]L[Pen]-NH2; thioether N-14)
1 to 9.9		CCCC[C@H]1C(=O)N(C)[C@@H](CCCC)C(=O)N[C@@H](CC(C)C)C(=O)N[C@H](C(N)=O)C(C)(C)SCC(=O)N[C@@H](Cc2ccc(OC)cc2)C(=O)N2CCCC[C@H]2C(=O)N[C@@H](CC(=O)O)C(=O)N2CCC[C@H]2C(=O)N[C@@H](Cc2cnc[nH]2)C(=O)N[C@@H](CCC(=O)O)C(=O)N2C[C@H](O)C[C@H]2C(=O)N[C@@H](Cc2c[nH]c3ccccc23)C(=O)N[C@@H](CCN)C(=O)N[C@@H](Cc2cn(CC(=O)NS(C)(=O)=O)c3ccccc23)C(=O)N1C [Example 1007] ({CH2CO}-Y(Me)[Pip]DPHE[Hyp]W[Dab][Trp(1-CH2CONHSO2Me)][NMeNle][NMeNle]L[Pen]-NH2; thioether N-14)
1 to 9.9		CCCC[C@H]1C(=O)N(C)[C@@H](CCCC)C(=O)N[C@@H](CC(C)C)C(=O)N[C@H](C(N)=O)C(C)(C)SCC(=O)N[C@@H](Cc2ccc(Cl)cc2)C(=O)N2CCCC[C@H]2C(=O)N[C@@H](CC(=O)O)C(=O)N2CCC[C@H]2C(=O)N[C@@H](Cc2cnc[nH]2)C(=O)N[C@@H](CCC(=O)O)C(=O)N2C[C@H](O)C[C@H]2C(=O)N[C@@H](Cc2c[nH]c3ccccc23)C(=O)N[C@@H](CCN)C(=O)N[C@@H](Cc2cn(CC(=O)NS(C)(=O)=O)c3ccccc23)C(=O)N1C [Example 1008] ({CH2CO}-[Phe(4-Cl)][Pip]DPHE[Hyp]W[Dab][Trp(1-CH2CONHSO2Me)][NMeNle][NMeNle]L[Pen]-NH2; thioether N-14)
10 to 99		CCCC[C@H]1C(=O)N(C)[C@@H](CCCC)C(=O)N[C@@H](CC(C)C)C(=O)N[C@H](C(=O)NCC(N)=O)CSCC(=O)N[C@@H](Cc2ccc(O)cc2)C(=O)N(C)[C@@H](C)C(=O)N[C@@H](CC(N)=O)C(=O)N2CCC[C@H]2C(=O)N[C@@H](CN)C(=O)N[C@@H](CC(C)C)C(=O)N2C[C@H](O)C[C@H]2C(=O)N[C@@H](Cc2c[nH]c3ccccc23)C(=O)N[C@@H](CCN)C(=O)N[C@@H](Cc2nc(CC(=O)O)n3c2CCCC3)C(=O)N1C [Example 1009] ({CH2CO}-Y[NMeA]NP[Dap]L[Hyp]W[Dab][X11][NMeNle][NMeNle]LCG-NH2; thioether N-14)
1 to 9.9		CCCC[C@H]1C(=O)N(C)[C@@H](CCCC)C(=O)N[C@@H](CC(C)C)C(=O)N[C@H](C(N)=O)C(C)(C)SCC(=O)N[C@@H](Cc2ccc(O)cc2)C(=O)N2CCCC[C@H]2C(=O)N[C@@H](CC(=O)O)C(=O)N2CCC[C@H]2C(=O)N[C@@H](Cc2cnc[nH]2)C(=O)N[C@@H](CCC(=O)O)C(=O)N2C[C@H](O)C[C@H]2C(=O)N[C@@H](Cc2c[nH]c3ccccc23)C(=O)N[C@@H](CCN)C(=O)N[C@@H](Cc2cn(CC(=O)NS(C)(=O)=O)c3ccccc23)C(=O)N1C [Example 1010] ({CH2CO}-Y[Pip]DPHE[Hyp]W[Dab][Trp(1-CH2CONHSO2Me)][NMeNle][NMeNle]L[Pen]-NH2; thioether N-14)

— patent publication US10358463B2, “Immunomodulators” (BRISTOL-MYERS SQUIBB COMPANY, priority 2016, dated 2019)
